According to patent US20040019060A1, “Sigma receptor ligands and their medical uses” (priority 2000, published 2004):
Where two headings read alike, the source gives them in different places.

Tests used:
[1] = biological target: sigma-1 sites (Homo sapiens, UniProt Q99720); conditions: cited from earlier work; for affinity for sigma-1 versus sigma-2 sites / selectivity for sigma sites compared to other receptors: Matsumoto et al 1995; for selectivity for sigma sites compared to other receptors: vs opiate, phencyclidine, muscarinic, dopamine, alpha-1-, alpha-2-, beta-adrenoceptor, 5HT-1, 5-HT-2
[2] = system: endothelial cells; experiment: Endothelial cell proliferation assay (cell phosphatase activity); assay type: cell-based, human; conditions: for IC50: concentration of drug required to inhibit survival and/or proliferation by 50%, read-out: Antagonists: IC50; for Rescue from Rimcazole inhibition of proliferation: 4 μM agonist added together with 4 μM Rimcazole; for Stimulatory activity on cell proliferation: agonist ligands alone; for Agonists: stimulation: increase in cell number relative to controls on day 4
Experimental: HUVECS (human umbilical vein endothelial cells) obtained from TCS Biologicals were grown in TCS Biologicals Large Vessel Endothelial Cell Basal Medium (ZHM-2951) with supplement (ZHS-8945). This contains heparin, hydrocortisone, human EGF, human bFGF (concentrations not disclosed by the Company) with added 2% FCS, pH 7.4.
(§1) HMEC-1 (immortalised human microvascular endothelial cells) obtained from Dr Colin Porter, Chester Beatty Laboratories were grown in TCS Biologicals Microvascular Endothelial Cell Basal Medium (ZHM-2946) with supplement (ZHS-8947). This contains heparin, hydrocortisone, human EGF, human bFGF, dibutyryl cyclic AMP (concentrations not disclosed by the Company) with added 5% FCS, pH 7.4.
as §1, with “HDMECS (human dermal” for “HMEC-1 (immortalised human”, “TCS Biologicals” for “Dr Colin Porter, Chester Beatty Laboratories”
The cells were seeded at 2×10^4 ml in 96 well microtitre plates on day 0, and sigma ligands were added in fresh medium on day 1. […] PCS at the concentrations indicated was present throughout the assay. Each concentration of drug was assayed in triplicate, and the vehicle concentration was kept constant.
Viable cells present at the end of the assay were estimated by determining phosphatase activity as follows: 100Xl of paranitrophenylphosphate (Sigma) at 3 mg/ml in phosphate buffer pH 5.5 containing 0.1% Triton X100 was added to wells and incubated for 2hr at 37° C. The reaction was stopped with 1N NaOH. Released paranitrophenol, indicative of attached cell number, was measured by reading the absorbance at 405 nm in a Titertek multiscan. […] The 100% value is the mean absorbance of control wells treated with vehicle alone; the 0% value is that of wells containing medium only.

[3] = system: Human endothelial cells co-cultured with human "feeder" fibroblasts; experiment: In vitro angiogenesis assay (pseudocapillary formation, anti-CD31 staining); assay type: cell-based
Experimental: Human endothelial cells co-cultured with human “feeder” fibroblasts on a fibrin matrix in 24 well plates were incubated with ligands at different concentrations. The ligands were added on days 0, 4, 7 and 9 and the experiment terminated on day 11. On each plate, 2 wells served as untreated controls, and 2 received suramin at […] as a standard angiogenesis inhibitor. Each concentration of ligand was assayed in triplicate. On day 11, the wells were washed, and the endothelial cells fixed and stained with anti-CD31 (PECAM-1) antibody and visualised with alkaline phosphatase conjugated second antibody. The cultures were scanned for image analysis and quantitation using a DataCell image analysis system and ImagePro software. Angiogenesis was expressed as the area and/or perimeter of “pseudocapillaries” formed in the gel by the endothelial cells.

[4] = system: Human adult dermal microvascular endothelial cells; experiment: MTS cell viability/proliferation assay, microvascular endothelial cells
[5] = system: sponge angiogenesis; experiment: Rat sponge angiogenesis model (125I albumin vascular volume); assay type: in vivo, CBH/cbi rats
Experimental: In order to study neoangiogenesis in the absence of tumours, sterile polyether sponges were implanted into animals. This technique, developed in Cambridge, has been widely used to study angiogenesis. We have employed a triple radiotracer technique to study different aspects of the angiogenic process.
CBH/cbi rats were implanted s.c. with sterile 13 mm diameter sponges as above. They were treated i.p. with Rimcazole (30 mg/kg/day) for 14 days from day 0. Five minutes before termination, they were injected with ^125I labelled rat albumin (a macromolecule which, in the short term remains intravascular). The amount of radioiodine in the sponges is an index of vascular volume.

[6] = system: Human mammary carcinoma (MDA MB 468) cells; experiment: MTS cell viability/proliferation assay, mammary carcinoma cells; assay type: cell-based; conditions: 10 micromolar, low passage cells, FIG. 9
Experimental: Human mammary carcinoma (MDA MB 468) cells were obtained from TCC, Manassas, Va., USA; catalogue number HTB-132; cells were grown in accordance with the manufacturer's instructions.
(§2) Cell density was checked microscopically at time zero.

[7] = Pharmacokinetics in mice (LCMS of plasma, liver, spleen); assay type: in vivo, Balb/C mice; conditions: not shown
Experimental: Prior to undertaking any in vivo experiments with Rimcazole to study effects on tumour growth and angiogenesis, it was necessary to determine its pharmacokinetics in order that doses in the active range could be administered. Rimcazole (dissolved in water) was administered at 40 mg/kg i.p to Balb/C mice. Heparinised blood samples were taken at 5, 15 and 30 minutes, 1,2,4,6, and 24 hours and plasma separated. Tissue samples were also taken at some time points for analysis. Rimcazole samples were initially analysed by LCMS.
Column: Supelco 50×4.6 mm ABZ+ with 5 μ packing.
Mobile phase: A=HPLC grade methanol, B=0.1% formic acid in water.
Full scan mode: mass range analysed 50 to 850 amu.
MSMS mode: filtered ions were 322 (Rimcazole), 338 (Rimcazole+oxygen), and 514 (glucuronide of 338 metabolite).

[8] = system: human adult dermal fibroblasts; experiment: MTS cell viability/proliferation assay, dermal fibroblasts; assay type: cell-based
Excerpt: (§3) (Tissue in all cases was from healthy donors). […] Primary cell types included:
as §2

[9] = system: Human mammary epithelial cells; experiment: MTS cell viability/proliferation assay, mammary epithelial cells; assay type: cell-based; conditions: 10 micromolar, up to 48 hours, FIG. 9
Excerpt: as §3
Human mammary epithelial cells (catalogue number CC-2551; stain positive for cytokeratins 14, 18 and 19).
as §2

sigma-1 sites, sequence (Q99720 whole entry): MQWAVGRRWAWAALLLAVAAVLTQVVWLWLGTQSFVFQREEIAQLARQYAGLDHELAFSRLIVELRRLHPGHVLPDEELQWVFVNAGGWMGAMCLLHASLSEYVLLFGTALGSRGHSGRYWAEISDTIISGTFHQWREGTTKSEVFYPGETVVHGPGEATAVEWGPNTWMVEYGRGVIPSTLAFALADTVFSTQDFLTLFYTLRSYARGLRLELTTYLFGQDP

## CN(C)CCN(C)CCc1ccc(Cl)c(Cl)c1 [BD1047, N(−)[2-(3,4-dichlorophenyl)ethyl]-N-methyl-2-(dimethylamino)ethylamine]
[1]
  affinity for sigma-1 versus sigma-2 sites: preferential affinities for sigma-1 compared to sigma-2
  selectivity for sigma sites compared to other receptors: marked selectivity
[2]
  IC50: 74 µM

## CC(C)=CCN1CCC2(C)c3cc(O)ccc3CC1C2C (single isomer, unassigned; (+)) [(+)pentazocine, (+)-pentazocine]
[3]; equimolar concentration co-incubated, FIG. 5c
  Rescue of in vitro angiogenesis inhibition by 4 μM Rimcazole: can be prevented
[4]; 10 micromolar co-administered with 10 micromolar IPAG or rimcazole, FIG. 11
  Prevention of cytotoxic effect of IPAG and rimcazole: completely prevented
[4]; co-administration, FIG. 11
  Cell proliferation rate on co-administration with rimcazole and IPAG: increased cell proliferation rates above control values
[2]; FIG. 3
  Rescue from Rimcazole inhibition of proliferation: slight increase in survival
[2]
  Stimulatory activity on cell proliferation: moderate stimulatory activity
[2]; at 4 μM
  Agonists: stimulation: 120% at 4 μM

## CN1CCN(CCc2ccc(Cl)c(Cl)c2)CC1 [BD1063, 1(−)[2-(3,4-dichlorophenyl)ethyl]-4-methylpiperazine]
[1]
  affinity for sigma-1 versus sigma-2 sites: preferential affinities for sigma-1 compared to sigma-2
  selectivity for sigma sites compared to other receptors: marked selectivity
[2]; Homo sapiens, Endothelial cell
  IC50: 71 µM

## N=C(Nc1ccc(I)cc1)NC1C2CC3CC(C2)CC1C3 (stereo not shown) [IPAG, 1-(4-iodophenyl)-3-(2-adamantyl)guanidine]
[5]; 30 mg/kg/day for 14 days
  Vascular volume of normal organs (liver and kidney): unaffected
[5]; 30 mg/kg/day for 14 days after implantation, FIG. 7b
  Neoangiogenesis in sponges (vascular volume, radiolabelled albumin): reduced
[1]; Whittemore et al 1997, read-out: inhibition constant for sigma-1 sites
  Ki: ~2.8 nM
[3]; FIG. 4, 5a, 5b angiogenesis area
  Inhibition of pseudocapillary formation (in vitro angiogenesis): very effective in inhibiting
[6]
  Cell killing (MTS viability): no surviving cells remained after 24 hours
[7]
  Pharmacokinetics compared with Rimcazole: similarly favourable PK
[4]; Homo sapiens, Endothelial cell, read-out: Reduction in viable cell numbers compared to baseline values
  cytotoxicity at 10 µM: 60 to 80%
[8]; 10 micromolar, up to 48 hours, FIG. 9
  Survival and proliferation (MTS): continued to proliferate vigorously
[8]; 100 micromolar to 1 nanomolar, FIG. 10
  Tolerance of fibroblasts over a range of concentrations (MTS): slightly less tolerant of high concentrations
[2]; Homo sapiens, Endothelial cell
  IC50: 11 µM
[2]; not shown
  Inhibition of endothelial cell proliferation compared with Rimcazole: as effective as Rimcazole
[9]
  Survival and proliferation (MTS): continued to proliferate vigorously

## C=CCN1CCC2(C)c3cc(O)ccc3CC1C2C (single isomer, unassigned; (+)) [(+)-SKF-10047, (+)-N-allyl normetazocine]
[2]; FIG. 3
  Rescue from Rimcazole inhibition of proliferation: slight increase in survival
[2]; 10 μM agonist added together with 4 μM Rimcazole, FIG. 3
  Rescue from Rimcazole inhibition: numbers of endothelial cells: the same as in control untreated cultures
[2]
  Stimulatory activity on cell proliferation: moderate stimulatory activity
[2]; at 100 μM
  Agonists: stimulation: 110% at 100 μM
